The values below come from patent US8530493B2, “Indolopyridines as Eg5 kinesin modulators” (4SC AG, priority 2006, dated 2013).

Data set [1] deals with RKO p27 uninduced (proliferating) colon adenocarcinoma cells. Kind of data set: Alamar Blue cell viability assay, RKO p27 uninduced (proliferating). In kind it is cell-based. The following applies: Homo sapiens, RKOp27, Table B1, anti-proliferative/cytotoxic activity, 72 hours, read-out: −log EC50 RKO p27 uninduced (proliferating) (converted). The gist of the method:
(§1)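 Viability read by Alamar Blue fluorescence (ex 544, em 590 nm), normalised to untreated wells, after 72 h, 37° C, 5% CO2 compound exposure in triplicate. Cells were uninduced (no Ponasterone A), proliferating RKO colon carcinoma p27 or p21 subclones in DMEM with 10% FCS; values are −log EC50 (mol/l).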

Data set [2] has as its system RKO p27 induced (arrested) colon adenocarcinoma cells. As to the kind of experiment: Alamar Blue cell viability assay, RKO p27 induced by Ponasterone A (arrested). The following applies: Homo sapiens, RKOp27, Table B1, cells arrested by Ponasterone A-induced p27Kip1, 72 hours, read-out: −log EC50 RKO p27 induced (arrested) (converted). In kind it is cell-based. The method in brief: (§2)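 RKOp21 or RKOp27 subclones in DMEM/10% FCS with 10 μM Ponasterone A to induce p21/p27 arrest, seeded 24 h before compound; triplicate 72 h exposure at 37 °C. Alamar Blue fluorescence (544/590 nm) as % of untreated (1% DMSO) cells; EC50 from dose-response curves, reported as −log EC50 (mol/l).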

In data set [3] the test system is RKO p27 or p21 induced (arrested) colon adenocarcinoma cells. As to the kind of experiment: Alamar Blue cell viability assay, RKO p27 or p21 induced (arrested). In kind it is cell-based. The settings on record: Homo sapiens, RKOp27, Table B2, cells arrested by Ponasterone A, 72 hours, read-out: −log EC50 RKO p27 or p21 induced (arrested) (converted). The method in brief:
as §2

Data set [4] deals with RKO p27 or p21 uninduced (proliferating) colon adenocarcinoma cells. As to the kind of experiment: Alamar Blue cell viability assay, RKO p27 or p21 uninduced (proliferating). In kind it is cell-based. The settings on record: Homo sapiens, RKOp27, Table B2, anti-proliferative/cytotoxic activity, 72 hours, read-out: −log EC50 RKO p27 or p21 uninduced (proliferating) (converted). The gist of the method:
as §1

Take `CCOc1ccc2[nH]c3c(c2c1)C[C@@]1(C)C(=O)N(CCBr)C(=O)N1[C@@H]3c1cccc(O)c1` (racemic) [Example 22, (3aSR,10RS)-2-(2-Bromo-ethyl)-6-ethoxy-10-(3-hydroxy-phenyl)-3a-methyl-3a,4,9,10-tetrahydro-2,9,10a-triaza-cyclopenta[b]fluorene-1,3-dione]: the melting point fell in the range of 250 to 252 °C. The EC50 in data set [1] was 39.8 to 251 nM. The EC50 in data set [2] is ≥ 3160 nM. For the same compound, the EC50 in data set [3] is ≥ 316 nM. For the same compound, in data set [4], the EC50 was ≤ 39.8 nM.
